The results in this text go back to US11584745B2, “Aromatic heterocyclic compound, intermediate thereof, preparation method therefor, and pharmaceutical composition and use thereof” (SHANGHAI YINGLI PHARMACEUTICAL CO., LTD, priority 2018, dated 2023).

This experiment deals with ALK5 (Homo sapiens (Human), UniProt P36897). As to the kind of experiment: Evaluation experiment of ALK5 enzyme activity inhibition IC50 (ADP-Glo kinase assay). The experiment is classed as biochemical. The note with it: 25 nM ALK5, 0.1 mg/mL peptide TGFbR1, 7 μM ATP, 30° C. 1 hour, ADP-Glo luminescence. The procedure: 1×kinase buffer preparation: 40 mM Tris (pH 7.5), 20 mM MgCl2, 0.10% BSA, 1 mM DTT.
Sequence of ALK5 (P36897 34-503): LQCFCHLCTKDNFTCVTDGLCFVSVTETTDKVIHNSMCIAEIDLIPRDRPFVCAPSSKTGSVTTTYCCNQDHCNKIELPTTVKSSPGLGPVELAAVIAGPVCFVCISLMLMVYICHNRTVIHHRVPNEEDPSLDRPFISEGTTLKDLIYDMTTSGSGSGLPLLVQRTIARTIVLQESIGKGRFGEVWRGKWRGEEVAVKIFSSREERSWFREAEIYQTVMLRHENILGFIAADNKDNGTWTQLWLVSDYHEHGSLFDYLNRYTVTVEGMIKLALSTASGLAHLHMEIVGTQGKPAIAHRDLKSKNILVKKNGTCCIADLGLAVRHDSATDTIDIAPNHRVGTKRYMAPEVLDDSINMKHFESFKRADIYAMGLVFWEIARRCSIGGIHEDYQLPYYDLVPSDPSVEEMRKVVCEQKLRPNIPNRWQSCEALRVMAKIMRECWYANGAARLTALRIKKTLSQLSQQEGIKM
Compound preparation: The final detection concentration of the compound was 10 μM, which was configurated to a 100-fold concentration, i.e., 1 mM. In the second well of the 384-well plate, 100 μL of 100-fold compound was added, and 60 μL of 100% DMSO was added to other wells. 30 μL of compound from the second well was taken and added to the third well, and a 3-fold dilution was made in sequence, a total of 10 concentrations were diluted. 50 nL of compound was transferred to the reaction plate with echo.
Kinase reaction: Kinase was added to 1×kinase buffer to form a 2×enzyme solution. […] The polypeptide TGFbR1 (purchased from Signal Chem, catalog number T36-58) and ATP were added to 1×kinase buffer to form a 2×substrate solution. The final concentration of the substrate solution was 0.1 mg/mL peptide TGFbR1, 7 μM ATP. 2.5 μL of 2×enzyme solution was added to the 384-well reaction plate (there was already 50 nL of 100% DMSO dissolved compound), and 1×kinase buffer was added to the negative control well. The plate was incubated at room temperature for 10 minutes. 2.5 μL of 2× substrate solution was added to the 384-well reaction plate. The 384-well plate was covered and incubated at 30° C. for 1 hour. ADP-Glo reagent (purchased from Promege, catalog number v9102) was equilibrated to room temperature. 5 μL of ADP-Glo reagent was transferred to the reaction well of the 384-well plate to stop the reaction.
Detection of reaction results: 10 μL of kinase detection reagent was transferred to each reaction well, the plate was shaken for 1 minute and placed at room temperature for 30 minutes. The sample luminescence value was read at Synegy.
Curve fitting: The data of the luminescence reading from the Synegy program were copied. The value of the luminescence reading was converted into the percentage of inhibition by a formula (inhibition percent=(max-sample RLU)/(max-min)*100, wherein “min” was a […] reading of the control sample without enzyme; “max” was the […] reading of sample with DMSO as a control). The data were imported into MS Excel and GraphPad Prism was used for curve fitting. The ICso value was calculated.
On to `Cc1cccc(-n2cccc2-c2ccc3ncc(C(=O)N(C)C)n3c2)n1` [Compound 5], for which the IC50 (in general, the concentration at which inhibition is half-maximal) is 105 nM.

In the case of `Cc1cccc(-c2ccsc2-c2ccc3ncc(C(N)=O)n3c2)n1` [Compound 17], the IC50 is 5.2 nM.

Compound `Cc1cccc(-c2cccnc2-c2ccc3ncc(C(N)=O)n3c2)n1` [Compound 19] had an IC50 of 75 nM.

`Cc1cccc(-c2cc(C)sc2-c2ccc3ncc(C(N)=O)n3c2)n1` [Compound 18] gave an IC50 of 9.4 nM.

As for `Cc1cccc(-c2cncn2-c2ccc3ncc(C(N)=O)n3c2)n1` [Compound 9], 136 nM corresponded to half-maximal inhibition (IC50). Against the preceding compound, the IC50 is about 14-fold higher.

For `CNC(=O)c1cnc2ccc(-c3ncccc3-c3cccc(C)n3)cn12` [Compound 20], half-maximal inhibition (IC50) required 76 nM. Against the preceding compound, the IC50 is about 1.8-fold lower.

Consider `Cc1cccc(-c2cc3ccccc3n2-c2ccc3ncc(C(N)=O)n3c2)n1` [Compound 25], for which 14 nM corresponded to half-maximal inhibition (IC50). Against the preceding compound, the IC50 is about 5.4-fold lower.

As to `Cc1cccc(-c2nccn2-c2ccc3ncc(C(N)=O)n3c2)n1` [Compound 8], the IC50 came to 7 nM.

`Cc1cccc(-c2cccn2-c2ccc3ncc(C(N)=O)n3c2)n1` [Compound 1] showed an IC50 of 13 nM. This IC50 is about 1.9-fold higher than that of the compound before.

`Cc1csc(-c2ncccc2-c2ccc3ncc(C(N)=O)n3c2)n1` [Compound 23] came in with an IC50 of 21 nM.

`Cc1cccc(-c2cnsc2-c2ccc3nccn3c2)n1` [Compound 16] returned an IC50 of 165 nM.

`Cc1cccc(-n2cccc2-c2ccc3ncc(C(N)=O)n3c2)n1` [Compound 4] yielded an IC50 of 19 nM.
